Key:
Assay type in all cases: biochemical, Campylobacter jejuni 11168
[1] = system: LegB (Cj1319, 4,6-dehydratase); assay: LegB C4,6 dehydratase reaction with NDP-sugars; details: in the presence or absence of NAD(P)+
Description: (§1) Enzymatic reactions were performed for 4.5 h at 37° C., and then overnight at 25° C., with approximately 200 μg ml^−1 respective protein concentration using chemicals from Sigma (unless otherwise indicated). GDP-glucosamine biosynthesis. The ‘one-pot’ enzymatic synthesis of GDP-GlcN from Fru-6-P (I→IV) was accomplished using a 3 ml reaction containing His6PtmF, PtmAHis6, PgmLHis6, His6PtmE, 5 mM Fru-6-P (I), 10 mM L-Gln, 1 mM DTT, 5 mM MgCl2, 0.8 U ml^−1 pyrophosphatase, and 2.5 mM GTP in 25 mM Tris pH 7.5. Large-scale enzymatic synthesis of GDP-GlcN (IV) was accomplished using a 12 ml reaction containing 50 mM Tris pH 7.5, 1 mM GTP, 1 mM MgCl2, 0.8 U ml^−1 pyrophosphatase, 1.2 mM GlcN-1-P (III) and approximately 4.8 mg of His6PtmE. The large-scale enzymatic synthesis of GDP-GlcNAc was performed similar to that above, except the scale was increased five-fold and GlcNAc-1-P was used in place of GlcN-1-P (III). Assessment of His6PtmE substrate specificity was accomplished using 9 reactions, 80 μl each, containing 50 mM Tris pH 7.5, 2 mM MgCl2, 50 μg His6PtmE, and various combinations of 10 mM sugar-1-P (GalN-1-P, GlcN-1-P or GlcNAc-1-P) and 0.2 mM NTP (CTP, GTP, or TTP). Conversion of GDP-GlcN to GDP-GlcNAc. The His6GlmU reaction was performed using 1 mM GDP-GlcN (IV), 1.2 mM acetyl-CoA and His6GlmU in 25 mM sodium phosphate pH 7.8, 25 mM NaCl, 10 mM β-mercaptoethanol. In addition, a control reaction was performed containing 1 mM GlcN-1-P (III) instead of IV. Biosynthesis of legionaminic acid from GDP-GlcNAc. The stepwise enzymatic synthesis of intermediates or products was accomplished in 2 stages (V→VI→VII→VIII, and then VIII→IX→X) using 1 mM of V, 0.5 mM NAD, 0.8 mM PLP, 8 mM L-Glu, 1.2 mM acetyl-CoA, 1.2 mM PEP, LegBHis6, His6LegC, His6LegH, His6LegG, and His6LegI as appropriate, in 25 mM sodium phosphate pH 7.3, 25 mM NaCl. Assessment of His6LegG activity involved monitoring the reaction kinetics by ^1H NMR (see NMR spectroscopy) for 75 min using 0.75 mM GDP-2,4-diacetamido-2,4,6-trideoxy-α-D-Glc (VIII), 4 μg His6LegG in 200 μl of 25 mM sodium phosphate pH 7.3, 25 mM NaCl at 25° C. In addition, the substrate flexibility of His6LegG was assessed using a 300 μl reaction containing 40 μg His6LegG, 25 mM sodium phosphate pH 7.3, 25 mM NaCl, and 0.75 mM UDP-2,4-diacetamido-2,4,6-trideoxy-α-D-Glc, with incubation at 37° C. for 1.5 h, and then overnight at 25° C. Biosynthesis of CMP-legionaminic acid. The CMP-activation of legionaminic acid (X→XI) was performed using a 20 ml reaction containing approximately 0.2 mM of X, 50 mM MgCl2, 3 mM CTP, and 15 mg of LegFHis6 in 25 mM sodium phosphate pH 7.8, 25 mM NaCl, with incubation at 37° C. for 5 h, and then 25° C. for 72 h. Metabolite purification. Typically, reactions were passed through an Amicon Ultra-15 (10,000 molecular weight cut-off) or Ultra-4 (5,000 molecular weight cut-off) filter membrane before analysis. As required, NDP-sugar preparations (GDP-Glc, GDP-GlcN, GDP-GlcNAc, CDP-GlcNAc, TDP-GlcNAc, and CMP-Leg) were lyophilized and desalted/purified using a Superdex Peptide 10/300 GL (Amersham Biosciences) column in 25 mM ammonium bicarbonate, pH 7.9. For further purity, the NDP-sugar samples above were subjected to anion-exchange chromatography (Mono Q 4.6/100 PE, Amersham Biosciences) using ammonium bicarbonate pH 7.9. Quantification of NDP-sugar preparations was determined using the molar extinction coefficients of CMP (ε260=7,400), GDP (ε260=11,500), TDP (ε260=8,700), and UDP (ε260=10,000).
(§2) CE analysis was performed using either a P/ACE 5510 or P/ACE MDQ system (Beckman Instruments, Mississauga, Ont) with diode array detection. The capillaries were bare silica 50 μm×50 cm, with a detector at 50 cm, and the running buffer was 25 mM sodium tetraborate pH 9.4. Samples were introduced by pressure injection for 6 sec, and the separation was performed at 18 kV for 20 min. Peak integration was done using the Beckman P/ACE station software.

[2] = system: His6PtmE (Cj1329, nucleotidyltransferase); assay: His6PtmE substrate specificity (sugar-1-P acceptors and NTP donors); details: for PtmE activity with sugar-1-P acceptor: 10 mM sugar-1-P, 0.2 mM NTP, 30 min at 37° C.; for PtmE NTP donor specificity with this sugar acceptor: NTP = CTP, GTP or TTP
Description: as §1, with “Enzymatic reactions were performed for 4.5 h at 37° C., and then overnight at 25° C., with approximately 200 μg ml^−1 respective protein concentration using chemicals from Sigma (unless otherwise indicated).” left out
as §2

[3] = target: T1, His6LegG (Cj1328, NDP-sugar hydrolase/2-epimerase) (Campylobacter jejuni subsp. jejuni serotype O:2, UniProt Q0P8T0); assay: His6LegG activity and substrate flexibility (1H NMR, CE)
T1 construct: made in house; host or cells: E. coli BL21[DE3]
T1 sequence (Q0P8T0 whole entry): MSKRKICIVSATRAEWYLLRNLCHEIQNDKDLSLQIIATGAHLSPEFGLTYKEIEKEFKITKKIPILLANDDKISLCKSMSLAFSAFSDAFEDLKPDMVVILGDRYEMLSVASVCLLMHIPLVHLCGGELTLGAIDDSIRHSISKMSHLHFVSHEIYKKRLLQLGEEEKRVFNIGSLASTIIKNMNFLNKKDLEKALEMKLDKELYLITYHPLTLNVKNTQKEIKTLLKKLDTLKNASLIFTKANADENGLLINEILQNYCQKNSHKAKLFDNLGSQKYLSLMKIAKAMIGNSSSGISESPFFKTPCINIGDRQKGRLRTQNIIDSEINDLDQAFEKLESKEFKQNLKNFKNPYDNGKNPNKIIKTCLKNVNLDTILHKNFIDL
Description: as §1, with “The CMP-activation of legionaminic acid (X→XI) was performed using a 20 ml reaction containing approximately 0.2 mM of X, 50 mM MgCl2, 3 mM CTP, and 15 mg of LegFHis6 in 25 mM sodium phosphate pH 7.8, 25 mM NaCl, with incubation at 37° C. for 5 h, and then 25° C. for 72 h. Metabolite purification. Typically, reactions were passed through an Amicon Ultra-15 (10,000 molecular weight cut-off) or Ultra-4 (5,000 molecular weight cut-off) filter membrane before analysis. As required, NDP-sugar preparations (GDP-Glc, GDP-GlcN, GDP-GlcNAc, CDP-GlcNAc, TDP-GlcNAc, and CMP-Leg) were lyophilized and desalted/purified using a Superdex Peptide 10/300 GL (Amersham Biosciences) column in 25 mM ammonium bicarbonate, pH 7.9. For further purity, the NDP-sugar samples above were subjected to anion-exchange chromatography (Mono Q 4.6/100 PE, Amersham Biosciences) using ammonium bicarbonate pH 7.9.” left out, “(ε260=10,000). […]” for “(ε260=10,000).”

Row | SMILES | LegB reaction product formation [1] | PtmE activity with sugar-1-P acceptor [2] | also measured
1 | CC(=O)NC1C(OP(=O)(O)OP(=O)(O)OCC2OC(n3ccc(N)nc3=O)C(O)C2O)OC(CO)C(O)C1O (stereo not shown) [CDP-GlcNAc, CDP-N-acetyl-glucosamine] | did not yield discernable product |  | 
2 | N[C@H]1C(OP(=O)(O)O)O[C@H](CO)[C@H](O)[C@@H]1O (stereo partly shown) [GalN-1-P] |  | no activity was observed | 
3 | O=P(O)(O)O[C@H]1O[C@H](CO)[C@@H](O)[C@H](O)[C@H]1O [Glc-1-P, glucose-1-phosphate] |  | activity was observed | 
4 | CC(=O)N[C@H]1[C@@H](OP(=O)(O)O)O[C@H](CO)[C@@H](O)[C@@H]1O [GlcNAc-1-P, N-acetyl-α-D-glucosamine-1-phosphate] |  | activity was observed | PtmE NTP donor specificity with this sugar acceptor [2]: exhibited promiscuity with respect to activator NTP donors
5 | N[C@H]1[C@@H](OP(=O)(O)O)O[C@H](CO)[C@@H](O)[C@@H]1O [III, α-D-glucosamine-1-phosphate] |  | activity was observed | PtmE NTP donor specificity with this sugar acceptor [2]: absolutely specific for GTP
6 | CC(=O)NC1C(OP(=O)(O)OP(=O)(O)OCC2OC(n3cc(C)c(=O)[nH]c3=O)CC2O)OC(CO)C(O)C1O (stereo not shown) [TDP-GlcNAc, TDP-N-acetyl-glucosamine] | did not yield discernable product |  | 
7 | Cc1cn([C@H]2C[C@H](O)[C@@H](COP(=O)(O)OP(=O)(O)O[C@H]3O[C@H](CO)[C@@H](O)[C@H](O)[C@H]3O)O2)c(=O)[nH]c1=O [TDP-Glc] | did not yield discernable product |  | 
8 | CC(=O)N[C@H]1[C@@H](OP(=O)(O)OP(=O)(O)OC[C@H]2O[C@@H](n3ccc(=O)[nH]c3=O)[C@H](O)[C@@H]2O)O[C@H](C)[C@@H](NC(C)=O)[C@@H]1O [UDP-2,4-diacetamido-2,4,6-trideoxy-α-D-glucose, reference compound] |  |  | NDP removal by LegG ([3]; quantity of LegG increased 10-fold, 90 min 37° C. then 16 h 25° C., CE): UDP removal was observed; formation of IX by LegG ([3]; similar conditions (4 μg LegG)): IX was not observed
9 | CC(=O)N[C@H]1[C@@H](OP(=O)(O)OP(=O)(O)OC[C@H]2O[C@@H](n3ccc(=O)[nH]c3=O)[C@H](O)[C@@H]2O)O[C@H](CO)[C@@H](O)[C@@H]1O [UDP-GlcNAc, UDP-N-acetyl-α-D-glucosamine] | did not yield discernable product |  | 
10 | CC(=O)N[C@H]1[C@@H](OP(=O)(O)OP(=O)(O)OC[C@H]2O[C@@H](n3cnc4c(=O)[nH]c(N)nc43)[C@H](O)[C@@H]2O)O[C@H](C)[C@@H](NC(C)=O)[C@@H]1O [VIII, GDP-2,4-diacetamido-2,4,6-trideoxy-α-D-glucose] |  |  | time to near completion of formation of IX by LegG ([3]; 4 μg LegG, 0.75 mM substrate, 25° C., in-tube 1H NMR): ≤ 75 min

Source: US9157105B2, “Biosynthesis of CMP-legionaminic acid from fructose-6-P, and respective pathway intermediates, using novel GDP-linked precursors” (priority 2008, dated 2015)
